In ChEMBL document CHEMBL4261554, “Bioisosteric replacement of central 1,2,4-oxadiazole ring of high affinity CB2 ligands by regioisomeric 1,3,4-oxadiazole ring” (Medchemcomm, 2017):

Tests used:
Cannabinoid receptor 2 [1] = biological target: T1, Cannabinoid receptor 2 (Homo sapiens, UniProt P34972); assay: Displacement of [3H]CP55940 from beta-galactosidase reporter fused human CB2 receptor expressed in CHOK1 cell membranes after 1 hr by scintillation spectrometric analysis
Cannabinoid receptor 2 [2] = biological target: T1, Cannabinoid receptor 2; assay: Displacement of [3H]CP55940 from beta-galactosidase reporter fused human CB2 receptor expressed in CHOK1 cell membranes at 1 uM after 1 hr by scintillation spectrometric analysis
Cannabinoid receptor 1 [3] = biological target: T2, Cannabinoid receptor 1 (Homo sapiens, UniProt P21554); assay: Displacement of [3H]CP55940 from beta-galactosidase reporter fused human CB1 receptor expressed in CHOK1 cell membranes at 1 uM after 1 hr by scintillation spectrometric analysis relative to control
T2 sequence (P21554 whole entry, the tested form may be a part): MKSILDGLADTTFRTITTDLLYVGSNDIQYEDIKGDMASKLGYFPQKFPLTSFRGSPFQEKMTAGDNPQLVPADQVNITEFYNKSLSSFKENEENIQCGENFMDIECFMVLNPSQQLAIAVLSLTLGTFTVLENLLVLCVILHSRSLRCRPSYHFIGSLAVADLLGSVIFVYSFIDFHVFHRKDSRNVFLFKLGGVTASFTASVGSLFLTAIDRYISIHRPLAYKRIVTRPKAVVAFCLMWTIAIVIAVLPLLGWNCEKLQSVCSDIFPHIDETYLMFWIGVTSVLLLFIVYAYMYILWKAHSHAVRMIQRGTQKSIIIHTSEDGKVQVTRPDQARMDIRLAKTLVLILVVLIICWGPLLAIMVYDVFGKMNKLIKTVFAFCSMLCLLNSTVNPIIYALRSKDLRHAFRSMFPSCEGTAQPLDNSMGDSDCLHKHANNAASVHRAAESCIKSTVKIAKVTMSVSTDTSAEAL

Cannabinoid receptor 1 [4] = biological target: T2, Cannabinoid receptor 1; assay: biochemical

T1 sequence (P34972 whole entry, the tested form may be a part): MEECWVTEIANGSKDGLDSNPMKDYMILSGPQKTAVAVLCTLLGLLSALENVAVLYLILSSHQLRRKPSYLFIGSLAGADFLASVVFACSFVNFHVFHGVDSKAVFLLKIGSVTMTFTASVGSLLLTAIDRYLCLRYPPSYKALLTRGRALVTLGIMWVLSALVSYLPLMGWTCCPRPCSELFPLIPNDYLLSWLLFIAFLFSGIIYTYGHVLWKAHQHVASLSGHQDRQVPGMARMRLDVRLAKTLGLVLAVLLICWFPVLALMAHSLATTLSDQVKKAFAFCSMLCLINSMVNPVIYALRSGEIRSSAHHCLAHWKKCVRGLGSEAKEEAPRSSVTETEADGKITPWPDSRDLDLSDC

## O=C(CCc1nnc(-c2ccc(Br)cc2F)o1)Nc1ccc2c(c1)c1ccccc1n2CCF
Cannabinoid receptor 2 [1]
  Ki: 318 nM
Cannabinoid receptor 2 [2]
  inhibition: > 50%
Cannabinoid receptor 1 [3]
  inhibition: -8%

## N#Cc1cc(F)ccc1-c1nnc(CCC(=O)Nc2ccc3c(c2)c2ccccc2n3CCO)o1
Cannabinoid receptor 2 [2]
  inhibition: < 50%

## O=C(CCc1nc(-c2ccc(Br)cc2F)no1)Nc1ccc2c(c1)c1ccccc1n2CCF
Cannabinoid receptor 1 [3]
  inhibition: -5%

## CCCCCCC(C)(C)c1cc(O)c2c(c1)OC(C)(C)[C@@H]1CC=C(CO)C[C@@H]21
Cannabinoid receptor 1 [4]
  Ki: 9.55 nM

## N#Cc1cc(F)ccc1-c1noc(CCC(=O)Nc2ccc3c(c2)c2ccccc2n3CCF)n1
Cannabinoid receptor 1 [3]
  inhibition: -8%

## O=C(CCc1nnc(-c2ccc(F)cc2Br)o1)Nc1ccc2c(c1)c1ccccc1n2CCF
Cannabinoid receptor 2 [1]
  Ki: 25 nM
Cannabinoid receptor 2 [2]
  inhibition: > 50%
Cannabinoid receptor 1 [3]
  inhibition: 22%

## N#Cc1cc(F)ccc1-c1nnc(CCC(=O)Nc2ccc3c(c2)c2ccccc2n3CCF)o1
Cannabinoid receptor 2 [1]
  Ki: 219 nM
Cannabinoid receptor 2 [2]
  inhibition: > 50%
Cannabinoid receptor 1 [3]
  inhibition: -1%

## O=C(CCc1nnc(-c2ccc(F)cc2Br)o1)Nc1ccc2c(c1)c1ccccc1n2CCO
Cannabinoid receptor 2 [2]
  inhibition: < 50%

## O=C(CCc1nnc(-c2ccc(Br)cc2F)o1)Nc1ccc2c(c1)c1ccccc1n2CCO
Cannabinoid receptor 2 [2]
  inhibition: < 50%
